# Laboratory results: patent US20030212254A1, “Use of an anion exchange resin (emp-7) as solid support for peptide synthesis and affinity chromatography” (priority 1999, published 2003)
# System: monoclonal antibody specific for (NANP)3 / recombinant protein containing the repetitive domain (NANP)n interaction
# Experiment: Inhibition ELISA: inhibition of the monoclonal antibody-recombinant protein interaction
# Format: binding, mouse
# Settings: 2000 to 3,9 μg/ml peptide or peptide-resin; 2 h at room temperature; absorbance at 492 nm; FIG. 6
# Experimental: In brief, the designed immunological experiment encompassed the following steps: the purified recombinant protein containing the repetitive domain (NANP)n of the circunsporozoite form of Plasmodium falciparum (v.g. Cell, 70, 1021-1033, [1992]) was added to Elisa's plate (200 ng/well) and maintained overnight at room temperature. After 3 washes with phosphate buffer containing 0,05% Tween-20, the plates were treated at 37° C. with PBS containing 5% disnatured milk and 1% serum bovine albumin. To calculate the degree of interaction of this recombinant protein with its antibody, the plates were treated with a specific monoclonal antibody for the (NANP)3 sequence obtained according to the reference in Science 228, 1436-1440 (1985), in a final concentration of 20 ng/ml. […] After 1 h of incubation at room temperature, the excess of labeled antibody was removed during the washings and the calorimetric reaction with o-phenilenediamine was developed and read at 492 nm. […]
# 100 μl of PBS were added to 2000 μg/ml to 3,9 μg/ml of free peptide (acetyl-NANP)3 or of {[(acetil-NANP)3]4-Eac4-(Lys)2-Lys-DEAE-Sephadex A50}resin. […] The absorbance of solutions was measured at 492 nm and the percentage of inhibition of this interaction antibody-recombinant protein induced by peptide-resin, resin or peptide was calculated according to the equation: […]
substance,measurement,value
acetyl-(NANP)3 [free (acetyl-NANP)3],inhibition of the antibody-recombinant protein interaction,highest inhibition
